Laboratory results taken from US20210337791A1, “Methods For Killing Insects Such As Drosophila species” (The United States of America, as represented by the …, priority 2020, published 2021).

Assays:
Drosophila suzukii = assay: Feeding test of D. suzukii adults with tyramine or M-tyramine sucrose solutions (fly mortality); assay type: in vivo; settings: 7 days; for fly mortality, first and second experiments: 1% solution in 0.5 M sucrose; for mortality: 4% compound in 0.5 M sucrose
Protocol: Flies and sugars: Drosophila suzukii used in these experiments were from a colony maintained at 22±5° C. under a photoperiod of L:D 16:8 h and a relative humidity of 60±5% RH at the Horticultural Crops Research Unit, USDA ARS in Corvallis, Oreg. Wildtype flies collected from infested fruits in Corvallis, Oreg., were used to start the colony. Standard rearing methods and diet are described by Woltz et al. (Journal of Applied Entomology, 139: 759-770 (2015)). Newly emerged adult males and females were collected daily and maintained in cages with water and diet until they were specific ages for experimentation.
The chemical components were tyramine (98%, Sigma-Aldrich), N-methyl-tyramine (shortened name=M-tyramine), 95%, Combi-Blocks, Inc.), and sucrose (>99%, Fisher Scientific, Hampton, N.H.).
The effect of tyramine and M-tyramine formulations on fly mortality-I: Ten 5-day old flies (5 males and 5 females) were introduced into a plastic vial and given a tube (1.5 ml) containing different water-based solutions (FIG. 1). For the first experiment various pairs were tested (FIG. 2A): (a) Sucrose 0.5 M only; (b) Tyramine 0.1%+Sucrose 0.5 M (0.1% Tyramine); (c) Tyramine 1%+Sucrose 0.5 M (1% Tyramine); (d) M-Tyramine 0.1%+Sucrose 0.5 M (0.1% M-Tyramine); and (e) M-Tyramine 1%+Sucrose 0.5 M (1% M-Tyramine).
The effect of tyramine and M-tyramine formulations on fly mortality-II: The second experiment consisted of the following (FIG. 2B): (a) Sucrose 0.5 M only; (b) Tyramine 1%+Sucrose 0.5 M (1% Tyramine); (c) Tyramine 2%+Sucrose 0.5 M (2% Tyramine); (d) M-Tyramine 1%+Sucrose 0.5 M (1% M-Tyramine), and (e) M-Tyramine 2%+Sucrose 0.5 M (2% M-Tyramine).
The effect of tyramine and M-tyramine formulations on fly mortality-III: The third experiment consisted of the following (FIG. 2C): (a) Sucrose 0.5 M only; (b) Tyramine 2%+Sucrose 0.5 M (2% Tyramine); (c) Tyramine 4%+Sucrose 0.5 M (4% Tyramine); (d) M-Tyramine 2%+Sucrose 0.5 M (2% M-Tyramine); and (e) M-Tyramine 4%+Sucrose 0.5 M (4% M-Tyramine). Survivorship of flies was checked daily for 7 days. Each pair per experiment was replicated at least eight times.

Aqueous solubility = assay type: physicochemical
Source text: By the term “effective amount” of a compound or property as provided herein is meant such amount as is capable of performing the function of the compound or property for which an effective amount is expressed. As will be pointed out below, the exact amount required will vary from process to process, depending on recognized variables such as the compounds employed and the processing conditions observed. Thus, it is not possible to specify an exact “effective amount.” However, an appropriate effective amount may be determined by one of ordinary skill in the art using only routine experimentation. Generally the concentration of the compounds will be, but not limited to, at least about 0.1% (e.g., at least 0.1%; for example in an aqueous solution), at least about 1% (e.g., at least 1%), preferably at least about 2% (e.g., at least 2%), preferably at least about 3% (e.g., at least 3%), preferably at least about 4% (e.g., at least 4%). […] However, higher concentrations than the limits shown could be obtained using solubilizing agents (e.g., DMSO of DMF) or chelating agents; for example, at least about 5% (e.g., at least 5%), preferably at least about 6% (e.g., at least 6%), preferably at least about 7% (e.g., at least 7%), preferably at least about 8% (e.g., at least 8%), preferably at least about 9% (e.g., at least 9%), and preferably at least about 10% (e.g., at least 10%). Concentrations lower than about 2% would require longer duration of exposure, such as the composition in a bait station to which the target insects have long term access to, thus increasing the total dose.

fire ant = assay: Feeding of biogenic amines to fire ants (worker and queen mortality); assay type: in vivo; settings: for fire ant worker mortality versus sucrose controls: biogenic amines all formulated at 1.0%
tawny crazy ant workers = assay: Pest ant specificity of tyramine using tawny crazy ant workers; assay type: in vivo

Compound | fly mortality, first and second experiments (Drosophila suzukii) | mortality (Drosophila suzukii) [%] | aqueous solubility (upper limit) (Aqueous solubility; free base) | aqueous solubility (upper limit) (Aqueous solubility; salt form) | fire ant worker mortality versus sucrose controls (fire ant) | also measured
CNCCc1ccc(O)cc1 [M-tyramine, N-methyl-tyramine] | not statistically consistent | 100 | ~3.4% | about 10% | – | –
NCCc1ccc(O)c(O)c1 [dopamine] | – | – | – | – | no different than the sucrose controls | –
NCCc1c[nH]cn1 [histamine] | – | – | – | – | no different than the sucrose controls | –
NCC(O)c1ccc(O)cc1 (centres unmarked) [octopamine] | – | – | – | – | no different than the sucrose controls | –
NCCc1c[nH]c2ccc(O)cc12 [serotonin] | – | – | – | – | no different than the sucrose controls | –
NCCc1ccc(O)cc1 [tyramine] | not statistically consistent | 100 | about 1% | about 5% | significant fire ant worker mortality | fly mortality versus 0.5 M sucrose negative control (Drosophila suzukii; 0.1% solution in 0.5 M sucrose): not significantly different; mortality in small lab colonies (fire ant; tyramine fed to small lab fire ant colonies): worker and queen fire ant mortality; fire ant worker mortality (fire ant; workers fed 1.0, 0.1, and 0.01% wt(g)/vol(L)): significant mortality; mortality of tawny crazy ant workers versus controls (tawny crazy ant workers): did not result in mortality greater than the controls
